The results in this text go back to patent US7022711B2, “2-(4-Pyridyl)amino-6-dialkoxyphenyl-pyrido[2,3-d]pyrimidin-7-ones” (Warner-Lambert Company, priority 2000, dated 2006).

For one data set, the system named is C6 rat glioma cells. The data set can be described thus: C6 tumor cell proliferation (Sulphorhodamine B). The data set is classed as cell-based. As to conditions: 4 days with compound. The procedure:
(§1) Human umbilical vein endothelial cells (HUVECs) (Clonetics, Palo Alto, Calif.) were seeded at 2000 cells per well in growth medium containing 2% serum (EGM, Clonetics) and allowed to attach overnight (37° C., 5% CO2, 100% humidity). C6 rat glioma cells (ATCC) were seeded at 600 cells per well and incubated in F10 medium (GIBCO, Gaithersburg, Md.) supplemented with 15% horse serum, 2.5% fetal bovine serum, and 1 mM glutamine. A90 human ovarian cells (Dr. Kent Crickard, SUNY/AB Medical School) were seeded at 600 cells per well in RPMI1640 (GIBCO) plus 10% fetal bovine serum. Plates were incubated overnight (37° C., 5% CO2, 100% humidity) to allow the cells to attach. Test compound dilutions were added to the appropriate wells, and the incubation was continued for 4 additional days. Monolayers were fixed in 10% trichloroacetic acid (30 minutes at 4° C.), washed with distilled water, and stained with Sulphorhodamine B (0.075% in 1% acetic acid) (Sigma). Plates were washed in 1% acetic acid, and the bound dye was solubilized in 100 μL unbuffered Tris base. Absorbance was measured at 540 nm using a reference filter wavelength of 630 nm. Inhibitor potency (IC50) versus cellular proliferation was determined, and endothelial cell selectivity was assessed by comparing the inhibition of HUVEC proliferation to A90 and C6 tumor cell proliferation (Table 3).

The target of another data set is T1, FGFR-1 (Homo sapiens, UniProt P11362).
T1 construct: The kinase domains from FGFR-1, VEGFR-2, Lck, and PDGF were purified from baculoviral vectors expression systems; made in house
Nature of the data set: Kinase inhibition assay (DELFIA), FGFr. The data set is classed as biochemical. As to conditions: 40 μM ATP, kinase domain 20 nM. The procedure: (§2) The inhibition activity of the compounds in Examples 8, 9, 10, 11, and 12 and Reference Compounds A and B were evaluated using the Dissociated Enhanced Lanthanide Fluoroimmuno Assay (DELFIA) (Frank Loganzo and Carolyn Hardy. A sensitive, time-resolved fluorometric assay for the detection of inhibitors of phosphotyrosine kinases. American Biotechnology Laboratory, December 1998). DELFIA plates (EG&G Wallac, Gaithersburg, Md.) were coated overnight with Poly Glu Tyr (4:1) (Sigma, St. Louis, Mo.) at room temperature, washed (DELFIA wash reagent, EG&G Wallac), and spotted with 1 μL inhibitor dilution or DMSO carrier control per well. In some cases, kinase was autophosphorylated prior to analysis by incubating 45 minutes at 4° C. in the presence of 4 mM ATP and 25 mM MgCl2. A typical 100 μL kinase assay reaction contained 20 mM Tris (pH 7.5), 20 mM MgCl2, 50 mM NaCl, 5 mM DTT, and protease inhibitors (Mini EDTA-free protease inhibitor cocktail tablets, Boehringer Mannheim, Indianapolis, Ind.), 40 μM ATP, and an appropriate concentration of inhibitor. The reaction was allowed to continue for 30 minutes at room temperature. Plates were washed, blocked 30 minutes at room temperature (0.5% bovine serum albumin in DELFIA Assay Buffer, EG&G Wallac), and washed. One hundred microliter europium-conjugated antiphosphotyrosine antibody in DELFIA assay buffer was added to each well. Plates were incubated for 1 hour and decanted. One hundred microliter DELFIA enhancement solution (EG&G Wallac) was added and time-resolved fluorescence of the reactions determined using a VICTOR2 1420 multilable counter (EG&G Wallac). Compounds were tested from 10 through 0.0001 μM. c-Src was (Upstate Biotechnology, Lake Placid, N.Y.) was used at 3 units per reaction. The kinase domains from FGFR-1, VEGFR-2, Lck, and PDGF were purified from baculoviral vectors expression systems and were used in the assays at 20 nM.

A further data set deals with T2, Lck (Homo sapiens, UniProt P06239).
T2 construct: The kinase domains from FGFR-1, VEGFR-2, Lck, and PDGF were purified from baculoviral vectors expression systems; made in house
Nature of the data set: Kinase inhibition assay (DELFIA), Lck. The data set is classed as biochemical. As to conditions: 40 μM ATP, kinase domain 20 nM. The procedure:
as §2

Data set [1] in a line: Metabolic stability, mice liver S9 fraction. As to conditions: mice liver S9, 5 μM, 37° C., 1.0 mM NADPH. The data set is classed as in vitro ADME. The method, then: (§3) Compounds were individually incubated (5 μM in DMSO) with human and mice liver S9 fractions in 50 mM KHPO4 buffer at 37° C. in the presence of 1.0 mM NADPH and additional cofactors. At 0, 10, 20, and 40 minutes, 100 μL aliquots were removed and added to 300 μL of acetonitrile. Standard curves were prepared in a similar manner with each compound. Samples were analyzed for parent concentration by LC-MS/MS. The in vitro metabolic half-life was determined from the concentration-time plots using WinNonlin. These in vitro data represent the rate of oxidative, hydrolytic, and conjugative metabolism.

Data set [2] in a line: Metabolic stability, human liver S9 fraction. The data set is classed as in vitro ADME. As to conditions: human liver S9, 5 μM, 37° C., 1.0 mM NADPH. The procedure: as §3
Another data set has as its target T3, VEGFR-2 (Homo sapiens, UniProt P35968).
T3 construct: The kinase domains from FGFR-1, VEGFR-2, Lck, and PDGF were purified from baculoviral vectors expression systems; made in house
Nature of the data set: Kinase inhibition assay (DELFIA), VEGF-2. The data set is classed as biochemical. As to conditions: 40 μM ATP, kinase domain 20 nM. The method, then: as §2, with “DELFIA” for “The inhibition activity of the compounds in Examples 8, 9, 10, 11, and 12 and Reference Compounds A and B were evaluated using the Dissociated Enhanced Lanthanide Fluoroimmuno Assay (DELFIA) (Frank Loganzo and Carolyn Hardy. A sensitive, time-resolved fluorometric assay for the detection of inhibitors of phosphotyrosine kinases. American Biotechnology Laboratory, December 1998). DELFIA”, “One hundred microliter DELFIA enhancement solution (EG&G Wallac) was added and time-resolved fluorescence of the reactions determined using a VICTOR2 1420 multilable counter (EG&G Wallac).” left out

Data set [3] deals with Human umbilical vein endothelial cells (HUVECs). Nature of the data set: Serum stimulated HUVEC cell proliferation (Sulphorhodamine B). The data set is classed as cell-based. The method, then: as §1
The next data set deals with A90 human ovarian cells. The data set can be described thus: A90 tumor cell proliferation (Sulphorhodamine B). The class given is cell-based. As to conditions: 4 days with compound. The method, then: as §1

T3 sequence (P35968 834-1162 limits assumed, species assumed): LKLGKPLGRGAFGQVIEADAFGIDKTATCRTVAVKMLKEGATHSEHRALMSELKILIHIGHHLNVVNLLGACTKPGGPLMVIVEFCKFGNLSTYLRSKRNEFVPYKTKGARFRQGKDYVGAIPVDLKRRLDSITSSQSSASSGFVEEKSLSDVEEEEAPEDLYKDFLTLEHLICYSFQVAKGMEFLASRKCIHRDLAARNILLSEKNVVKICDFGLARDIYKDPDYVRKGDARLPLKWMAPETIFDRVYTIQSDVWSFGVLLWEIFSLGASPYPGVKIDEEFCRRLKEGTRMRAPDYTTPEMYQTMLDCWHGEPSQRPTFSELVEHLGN
T2 sequence (P06239 245-498 limits assumed, species assumed): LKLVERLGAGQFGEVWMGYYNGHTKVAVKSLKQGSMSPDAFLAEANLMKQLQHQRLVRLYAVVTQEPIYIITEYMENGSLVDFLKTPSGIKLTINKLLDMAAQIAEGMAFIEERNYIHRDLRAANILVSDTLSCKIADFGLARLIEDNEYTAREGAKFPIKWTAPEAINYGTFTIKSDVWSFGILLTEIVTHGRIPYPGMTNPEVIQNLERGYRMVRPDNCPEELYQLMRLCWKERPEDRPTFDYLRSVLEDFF
T1 sequence (P11362 478-767 limits assumed, species assumed): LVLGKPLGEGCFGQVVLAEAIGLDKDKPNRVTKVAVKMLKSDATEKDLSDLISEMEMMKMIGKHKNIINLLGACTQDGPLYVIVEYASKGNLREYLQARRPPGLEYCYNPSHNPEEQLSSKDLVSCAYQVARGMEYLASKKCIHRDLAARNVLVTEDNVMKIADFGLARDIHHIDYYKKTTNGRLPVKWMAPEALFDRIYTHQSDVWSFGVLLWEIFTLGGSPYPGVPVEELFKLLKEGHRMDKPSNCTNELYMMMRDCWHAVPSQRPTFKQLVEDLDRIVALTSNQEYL

The term IC50 denotes the midpoint of a concentration-inhibition curve. As usually defined, the Ki is a measure of affinity in units of concentration, obtained from inhibition or displacement. Take “6-(3,5-Dimethoxy-phenyl)-8-ethyl-2-(pyridin-4-ylamino)-8H-pyrido[2,3-d]pyrimidin-7-one [Example 8]”: the IC50 with C6 rat glioma cells is above 25 µM; against FGFR-1, 0.009 µM; against VEGFR-2, 0.02 µM; in data set [3] (2% serum growth medium, 4 days with compound), 0.009 µM; with A90 human ovarian cells, 2.92 µM. For the same substance, the affinity at Lck corresponds to a Ki of 1.79 µM. The “MS9 in vitro metabolic half-life” value in data set [1] is above 3.33 h. Besides, in data set [2], the “HS9 in vitro metabolic half-life” value was above 3.33 h. In addition, the “selectivity for serum-stimulated endothelial cell proliferation” value in data set [3] (HUVEC compared to A90 and C6 tumor cell proliferation) is recorded as “selective inhibitors”.
